Experimental data reported in patent publication US20100278907A1, “Immunogenic Compositions Containing Ceramide and Methods of Use Thereof” (Medical College of Georgia Research Institute, Inc, priority 2008, published 2010).
Where two headings read alike, the source gives them in different places.

Tests used:
[1] = cited from earlier work
[2] = tested on: Aβ biogenesis; details: cited from earlier work
[3] = acid-induced acute lung injury; cited from earlier work
[4] = LPS model; cited from earlier work
[5] = tested on: ceramide levels in F11 cells; test: Immunocytochemistry for ceramide in treated F11 cells; assay type: cell-based
Experimental: (§1) For immunocytochemistry, F11 cells were grown on coverslips. Cells were incubated with myriocin for 3 days to inhibit de novo ceramide biosynthesis and reduce ceramide levels. To determine whether the antibody would cross-react with glycosphingolipids in the membrane, cells were incubated for 4 days with […] N-butyl-deoxynojirimycin (NB-dNJ), a glucosylceramide (GlcCer) synthase inhibitor known to inhibit glycosphingolipid biosynthesis. Control and myriocin- or NB-dNJ-treated cells were fixed with 4% p-formaldehyde in PBS for 20 min at room temperature. To release endogenous ceramide from sphingomyelin, fixed cells were incubated for 1 hour at 37° C. with 0.3 units (1 U/ml) of Staphylococcus aureus sphingomyelinase. Immunocytochemistry for ceramide was performed without the use of detergent for permeabilization. […] Confocal fluorescence microscopy was performed using a Zeiss LSM510 confocal laser scanning microscope equipped with a two photon argon laser at 488 nm (Cy2), 543 inn (Cy3), or 633 nm (Alexa Fluor: 647). […] Cells were washed with PBS, and stained cells were analyzed by flow cytometry, measuring the fluorescence emission at 530 nm. […]

[6] = tested on: TNF-α effect on endothelium-dependent vasorelaxation; details: cited from earlier work
[7] = repeated lung lavage; given together with surfactant; cited from earlier work
[8] = tested on: ceramide levels in F11 cells; test: Flow cytometry of F11 cells stained with anti-ceramide rabbit IgG; assay type: cell-based; details: F11 cells incubated with myriocin, stained with rabbit IgG fraction; FIG. 2
Experimental: as §1

[9] = tested on: ceramide levels in F11 cells; test: Ceramide levels by high-performance thin-layer chromatography; assay type: cell-based; details: myriocin incubation of F11 cells for 3 days; HPTLC

Q: For `CCCCCCCCCCCCC/C=C/[C@@H](O)[C@H](CO)NC(C)=O` [C2-ceramide, N-acetyl sphingosine], which ischaemic preconditioning-like protection ([1]; cell-permeable C2-ceramide compared with TNF-α preconditioning) is on record?
A: The ischaemic preconditioning-like protection was “TNF-a protection is reproduced”.

Q: Which results are given for `CCCCCCCCCCCCC/C=C/[C@@H](O)[C@H](CO)NC(=O)CCCCC` [C6 ceramide, N-hexanoylsphingosine]?
A: Aβ generation ([2]; FB1 treated cells): restored; biogenesis of Aβ ([2]; exogenous C6 ceramide): promoted

Q: With `S=C(S)OC1CC2CC1C1CCCC21` (stereo not shown) [D609, tricyclodecan-9-yl-xanthate] as the molecule, how does the oxygenation [3] read?
A: Its oxygenation is “improves”.

Q: What about the pulmonary edema [3] of the same molecule?
A: The pulmonary edema was “attenuates”.

Q: And the “protection from ischaemia-induced cell death” value ([1]; administered before the ischaemic period)?
A: Its value is “reproduces preconditioning protection”.

Q: What about the mortality [4] of the same molecule?
A: Its mortality is “attenuated”.

Q: And the pulmonary edema formation [4]?
A: Its pulmonary edema formation is “attenuated”.

Q: With `CCCCCCCC/C=C\CCCCCCCC(=O)NCCO` [N-oleoylethanolamine] as the molecule, how does the “effect on preconditioning-like protection provided by TNF-a or C2-ceramide” value ([1]; ceramidase inhibitor) read?
A: The value was “hinders”.

Q: What about the “effect on protection induced by ischaemic preconditioning” value ([1]; ceramidase inhibitor) of the same molecule?
A: Its value is “does not hinder”.

Q: Which “intensity of the ceramide immunostaining signal” value ([5]; F11 cells incubated for 4 days with 250 mM NB-dNJ) does the source give for `CCCCN1C[C@H](O)[C@@H](O)[C@H](O)[C@H]1CO` [NB-dNJ, N-butyl-deoxynojirimycin] here?
A: Its value is “not changed significantly”.

Q: With `CNCCCN1c2ccccc2CCc2ccccc21` [desipramine] as the molecule, how does the “effect on TNF-α inhibition of endothelium-dependent vasorelaxation” value [6] read?
A: The value was “neutralizes”.

Q: With `CN(C)CCCN1c2ccccc2CCc2ccccc21` [imipramine] as the molecule, how does the “duration of the beneficial effect” value [7] read?
A: Its value is 24 h.

Q: And the edema formation [7]?
A: Its edema formation is “ameliorates”.

Q: And the oxygenation [7]?
A: The oxygenation was “advances”.

Q: What about the pulmonary inflammation [4] of the same molecule?
A: Its pulmonary inflammation is “attenuated”.

Q: Which “intensity of the ceramide immunostaining signal” value ([5]; F11 cells incubated with myriocin for 3 days, rabbit IgG and polyclonal IgM) does the source give for `CCCCCCC(=O)CCCCCC/C=C/C[C@@H](O)[C@H](O)[C@@](N)(CO)C(=O)O` [myriocin] here?
A: The value was “reduced”.

Q: And the “reduction of fluorescence intensity compared with control cells” value [8]?
A: The value was “about 40%”.

Q: And the “reduction of ceramide levels” value [9]?
A: The value was “about 50%”.
